Assay results taken from PubChem BioAssay (NCI).
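Assay format: 96-well plates, 48-hour exposure. TGI marks complete inhibition of growth.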

Columns and labels:
Assay in all cases: NCI-60 cell line screen, 48 h
[1] = tested on: 786-0 renal
[2] = tested on: A498 renal
[3] = tested on: A549 NSCLC
[4] = tested on: ACHN renal
[5] = tested on: BT-549 breast
[6] = tested on: CAKI-1 renal
[7] = tested on: CCRF-CEM leukemia
[8] = tested on: COLO 205 colon
[9] = tested on: DU-145 prostate
[10] = tested on: EKVX NSCLC
[11] = tested on: HCC-2998 colon
[12] = tested on: HCT-116 colon
[13] = tested on: HCT-15 colon
[14] = tested on: HOP-62 NSCLC
[15] = tested on: HS 578T breast
[16] = tested on: HT29 colon
[17] = tested on: IGROV1 ovarian
[18] = tested on: K-562 leukemia
[19] = tested on: KM12 colon
[20] = tested on: LOX IMVI melanoma
[21] = tested on: M14 melanoma
[22] = tested on: MALME-3M melanoma
[23] = tested on: MCF7 breast
[24] = tested on: MDA-MB-231 breast
[25] = tested on: MDA-MB-435
[26] = tested on: MDA-N
[27] = tested on: MOLT-4 leukemia
[28] = tested on: NCI-H226 lung
[29] = tested on: NCI-H23 lung
[30] = tested on: NCI-H460 lung
[31] = tested on: NCI-H522 lung
[32] = tested on: NCI/ADR-RES ovarian
[33] = tested on: OVCAR-3 ovarian
[34] = tested on: OVCAR-4 ovarian
[35] = tested on: OVCAR-5 ovarian
[36] = tested on: OVCAR-8 ovarian
[37] = tested on: PC-3 prostate
[38] = tested on: RPMI-8226 leukemia
[39] = tested on: SF-268 CNS
[40] = tested on: SF-295 CNS
[41] = tested on: SF-539 CNS
[42] = tested on: SK-MEL-2 melanoma
[43] = tested on: SK-MEL-5 melanoma
[44] = tested on: SK-OV-3 ovarian
[45] = tested on: SN12C renal
[46] = tested on: SNB-19 CNS
[47] = tested on: SNB-75 CNS
[48] = tested on: SR leukemia
[49] = tested on: SW-620 colon
[50] = tested on: T-47D breast
[51] = tested on: TK-10 renal
[52] = tested on: U251 CNS
[53] = tested on: UACC-257 melanoma
[54] = tested on: UACC-62 melanoma
[55] = tested on: UO-31 renal
[56] = tested on: HOP-92 NSCLC
[57] = tested on: SK-MEL-28 melanoma
[58] = tested on: HL-60(TB) leukemia
[59] = tested on: RXF 393 renal

With `O=C(O)c1ccccc1/C=N\NC1=NCCCCN1` the TGI [1] was > 100 µM, the TGI [2] was > 100 µM and the TGI [3] was > 100 µM. For the same molecule, the TGI [4] was > 100 µM, the TGI [5] was > 100 µM and the TGI [6] was > 100 µM. The TGI [7] was > 100 µM, the TGI [8] was > 100 µM and the TGI [9] was > 100 µM. The TGI [10] was > 100 µM, the TGI [11] was > 100 µM and the TGI [12] was > 100 µM. The TGI [13] was > 100 µM, the TGI [14] was > 100 µM and the TGI [15] was > 100 µM. For the same molecule, the TGI [16] was > 100 µM, the TGI [17] was > 100 µM and the TGI [18] was > 100 µM. For the same molecule, the TGI [19] was > 100 µM, the TGI [20] was > 100 µM and the TGI [21] was > 100 µM. The TGI [22] was > 100 µM, the TGI [23] was > 100 µM and the TGI [24] was > 100 µM. For the same molecule, the TGI [25] was > 100 µM, the TGI [26] was > 100 µM and the TGI [27] was > 100 µM. For the same molecule, the TGI [28] was > 100 µM, the TGI [29] was > 100 µM and the TGI [30] was > 100 µM. The TGI [31] was > 100 µM, the TGI [32] was > 100 µM and the TGI [33] was > 100 µM. For the same molecule, the TGI [34] was > 100 µM, the TGI [35] was > 100 µM and the TGI [36] was > 100 µM. The TGI [37] was > 100 µM, the TGI [38] was > 100 µM and the TGI [39] was > 100 µM. For the same molecule, the TGI [40] was > 100 µM, the TGI [41] was > 100 µM and the TGI [42] was > 100 µM. For the same molecule, the TGI [43] was > 100 µM, the TGI [44] was > 100 µM and the TGI [45] was > 100 µM. The TGI [46] was > 100 µM, the TGI [47] was > 100 µM and the TGI [48] was > 100 µM. The TGI [49] was > 100 µM, the TGI [50] was > 100 µM and the TGI [51] was > 100 µM. The TGI [52] was > 100 µM, the TGI [53] was > 100 µM and the TGI [54] was > 100 µM. The TGI [55] was > 100 µM.
`COc1ccc2c(c1)CCc1c-2n(CCN(C)C)c2ccc(OC)cc12` was tested, and the TGI [1] was > 100 µM, the TGI [2] was 41.1 µM and the TGI [3] was > 100 µM. The TGI [4] was > 100 µM, the TGI [5] was > 100 µM and the TGI [6] was > 100 µM. For the same molecule, the TGI [7] was 9.5 µM, the TGI [8] was > 100 µM and the TGI [9] was > 100 µM. The TGI [10] was > 100 µM, the TGI [11] was > 100 µM and the TGI [12] was > 100 µM. For the same molecule, the TGI [13] was > 100 µM, the TGI [14] was 43.1 µM and the TGI [56] was > 100 µM. The TGI [15] was 77 µM, the TGI [16] was > 100 µM and the TGI [17] was 79.5 µM. For the same molecule, the TGI [18] was > 100 µM, the TGI [19] was 86.7 µM and the TGI [20] was > 100 µM. The TGI [21] was > 100 µM, the TGI [22] was 53.5 µM and the TGI [23] was 69.9 µM. The TGI [24] was > 100 µM, the TGI [25] was 32.6 µM and the TGI [26] was 95.2 µM. The TGI [27] was 59.1 µM, the TGI [28] was 10.6 µM and the TGI [29] was 50.2 µM. For the same molecule, the TGI [30] was > 100 µM, the TGI [31] was 75.9 µM and the TGI [32] was 46.1 µM. The TGI [33] was > 100 µM, the TGI [34] was 68.7 µM and the TGI [35] was 51.6 µM. The TGI [36] was 51 µM, the TGI [37] was 46 µM and the TGI [38] was 65.9 µM. For the same molecule, the TGI [39] was > 100 µM, the TGI [40] was > 100 µM and the TGI [42] was 40 µM. For the same molecule, the TGI [57] was 33.6 µM, the TGI [43] was > 100 µM and the TGI [44] was 87.1 µM. The TGI [45] was > 100 µM, the TGI [46] was 36.5 µM and the TGI [47] was 76.5 µM. The TGI [48] was > 100 µM, the TGI [49] was 74.5 µM and the TGI [50] was 85.4 µM. The TGI [51] was 80.3 µM, the TGI [52] was 78.7 µM and the TGI [53] was > 100 µM. The TGI [54] was > 100 µM and the TGI [55] was 47.8 µM.
With `COc1ccc2c(c1)C(=O)CC(N)C2` (stereo unspecified) the TGI [1] was > 100 µM, the TGI [3] was > 100 µM and the TGI [4] was > 100 µM. For the same molecule, the TGI [5] was > 100 µM, the TGI [6] was > 100 µM and the TGI [7] was > 100 µM. For the same molecule, the TGI [8] was > 100 µM, the TGI [9] was > 100 µM and the TGI [10] was > 100 µM. For the same molecule, the TGI [11] was > 100 µM, the TGI [12] was > 100 µM and the TGI [13] was > 100 µM. The TGI [58] was > 100 µM, the TGI [14] was > 100 µM and the TGI [56] was > 100 µM. For the same molecule, the TGI [15] was > 100 µM, the TGI [16] was > 100 µM and the TGI [17] was > 100 µM. The TGI [18] was > 100 µM, the TGI [19] was > 100 µM and the TGI [20] was > 100 µM. For the same molecule, the TGI [21] was > 100 µM, the TGI [22] was > 100 µM and the TGI [23] was > 100 µM. The TGI [24] was > 100 µM, the TGI [25] was > 100 µM and the TGI [26] was > 100 µM. The TGI [27] was > 100 µM, the TGI [28] was > 100 µM and the TGI [29] was > 100 µM. The TGI [30] was > 100 µM, the TGI [31] was > 100 µM and the TGI [32] was > 100 µM. For the same molecule, the TGI [33] was > 100 µM, the TGI [34] was > 100 µM and the TGI [35] was > 100 µM. The TGI [36] was > 100 µM, the TGI [37] was > 100 µM and the TGI [38] was > 100 µM. The TGI [59] was > 100 µM, the TGI [39] was > 100 µM and the TGI [40] was > 100 µM. The TGI [42] was > 100 µM, the TGI [57] was > 100 µM and the TGI [43] was > 100 µM. The TGI [44] was > 100 µM, the TGI [45] was > 100 µM and the TGI [46] was > 100 µM. The TGI [47] was > 100 µM, the TGI [48] was > 100 µM and the TGI [49] was > 100 µM. For the same molecule, the TGI [50] was > 100 µM, the TGI [51] was > 100 µM and the TGI [52] was > 100 µM. The TGI [53] was > 100 µM, the TGI [54] was > 100 µM and the TGI [55] was > 100 µM.
Work on `CSCCC(NC(=O)OC(C)(C)C)C(=O)NCCNc1ccc(NCCNC(=O)C(CCSC)NC(=O)OC(C)(C)C)c2c1C(=O)c1ccccc1C2=O` (stereo unspecified) yielded a TGI [1] of 12.8 µM, a TGI [2] of 21.1 µM and a TGI [3] of 7.93 µM. The TGI [4] was 30.3 µM, the TGI [5] was 9.59 µM and the TGI [6] was > 41.5 µM. The TGI [7] was > 38 µM, the TGI [8] was 5.41 µM and the TGI [9] was 33.2 µM. For the same molecule, the TGI [10] was > 27.7 µM, the TGI [11] was 5.99 µM and the TGI [12] was > 29.6 µM. The TGI [13] was > 100 µM, the TGI [14] was 8.2 µM and the TGI [56] was 10.1 µM. The TGI [15] was 31.2 µM, the TGI [16] was 7.51 µM and the TGI [17] was 9.85 µM. The TGI [18] was > 32.7 µM, the TGI [19] was > 63.6 µM and the TGI [20] was 22.8 µM. For the same molecule, the TGI [21] was 14.1 µM, the TGI [22] was 9.35 µM and the TGI [23] was 19.2 µM. For the same molecule, the TGI [24] was 8.54 µM, the TGI [25] was 7.49 µM and the TGI [26] was 7.03 µM. It also gave a TGI [27] of 11.5 µM, a TGI [28] of 19.7 µM and a TGI [29] of 15.9 µM. The TGI [30] was 23.1 µM, the TGI [31] was 3.38 µM and the TGI [32] was > 100 µM. For the same molecule, the TGI [33] was 15.6 µM, the TGI [34] was 24.8 µM and the TGI [35] was 17.2 µM. It also gave a TGI [36] of 5.4 µM, a TGI [37] of 17.7 µM and a TGI [38] of 12.2 µM. For the same molecule, the TGI [59] was 52.8 µM, the TGI [39] was 18.7 µM and the TGI [40] was 21.1 µM. For the same molecule, the TGI [41] was 6.96 µM, the TGI [42] was 35.9 µM and the TGI [57] was 3.69 µM. It also gave a TGI [43] of 13.2 µM, a TGI [44] of 32.9 µM and a TGI [45] of 21 µM. For the same molecule, the TGI [46] was 16.6 µM, the TGI [47] was 8.54 µM and the TGI [48] was 11.3 µM. It also gave a TGI [49] of 7.3 µM, a TGI [50] of 12.1 µM and a TGI [51] of 15.1 µM. For the same molecule, the TGI [52] was 10.6 µM, the TGI [53] was 12.1 µM and the TGI [54] was 14.4 µM. The TGI [55] was > 100 µM.
